pIC50: −log10 of the molar value.
Experiments:
Kumulus-Eizell Komplexe = experiment: cumulus expansion test in vitro; assay type: cell-based, Mäusen; details: competing with the natural agonist PGE2
Source text: In immaturen weiblichen Mäusen (Stamm : CD1 (ICR) von Charles River) wurde in einem Alter von 14 - 18 Tagen die Follikulogenese durch eine einmalige Gabe (intraperitoneal) von 10 I.E. PMSG (Pregnant Mare Serum Gonadotropine; Sigma G-4877, Lot 68H0909) induziert. 47 - 50 Stunden nach der Injektion wurden die Ovarien entnommen und die Kumulus-Eizell Komplexe entnommen. Der Kumulus Komplex ist in diesem Stadium noch nicht expandiert.
Die Kumulus-Eizell Komplexe wurden nun für 20-24 Stunden mit Prostaglandin E2 (PGE2) (0,3 µM), Vehikel Kontrolle (Ethanol) oder Testsubstanzen inkubiert. Medium: alpha- MEM Medium mit 0,1 mM IBMX, Pyruvate (0,23 mM) Glutamine (2 mM), Pen/Strep 100 IU/ml Pen. und 100 µg/ml Strep.) und HSA (8 mg/ml). Danach wurde die Kumulus Expansion durch die Einteilung in vier Stadien (nach Vanderhyden et al. Dev Biol. 1990 Aug;140(2):307-317) festgestellt. Tabelle 1: Beispiel für die biologische Wirksamkeit der erfindungsgemäßen Verbindungen (gemessen mittels cAMP Antagonismustest): […]

[1] = biological target: T1, EP2-Subtyp des humanen PGE2-Rezeptors (Homo sapiens, UniProt P43116); experiment: cAMP antagonism test (HTRF cAMP detection, PGE2-stimulated cells); assay type: cell-based; details: cAMP Antagonismustest, in presence of agonist PGE2; read-out: Antagonismus [IC50
T1 construct: host or cells: cells in a culture plate
Source text: Die Bindung von PGE2 an den EP2-Subtyp des humanen PGE2-Rezeptors induziert die Aktivierung membranständiger Adenylatzyklasen und führt zur Bildung von cAMP. In Gegenwart des Phosphodiesteraseinhibitors IBMX wird das durch diese Stimulation akkumulierte und mittels Zell-Lyse freigesetzte cAMP in einem kompetitiven Nachweisverfahren eingesetzt. In diesem Test konkurriert das cAMP im Lysat mit cAMP-XL665 um die Bindung eines Eu-Kryptat markierten Anti-cAMP Antikörpers.
Dabei entsteht in Abwesenheit von zellulärem cAMP ein maximales Signal, welches auf der Kopplung dieses Antikörpers an das cAMP-XL665 Molekül beruht. Dadurch entsteht nach Anregung bei 337 nm ein auf FRET (fluorescence resonance energy transfer) basierendes, langanhaltendes Emissionssignal bei 665 nm (und bei […]). Beide Signale werden in einem geeigneten Messgerät zeitlich versetzt, d.h. nach Abklingen der Hintergrundsfluoreszenz gemessen. Jegliche Erhöhung des durch Prostglandin-E2-Gabe bedingten niedrigen FRET-Signals (gemessen als Well-Ratio-Veränderung = Emission665nm/Emission620nm * 10000) zeigt die Wirkung von Antagonisten.
Die in einer Testplatte und 30 % DMSO vorgelegten Substanzlösungen (0.75 µl) wurden in 16 µl einer KRSB+IBMX-Stimulationslösung gelöst (1 X Krebs-Ringer Bicarbonate Buffer; Sigma-Aldrich # K-4002; inklusive 750 µM 3-Isobutyl-1-methylxanthine Sigma-Aldrich # I-7018), anschließend wurden 15 µl davon in eine medienfreie Zellkulturplatte überführt, die kurz zuvor mit KRSB gewaschen worden war.
Nach einer 30-minütigen Vorinkubation bei Raumtemperatur (RT) wurden 5 µl einer 4xPGE2 Lösung (11 nM) zugegeben und in Gegenwart des Agonisten für weitere 60 min bei RT inkubiert (Volumen: ∼ 20 µl), bevor die Reaktion anschließend durch Zugabe von 5 µl Lysispuffer gestoppt und für weitere 20 min bei RT inkubiert wurde (Volumen: ∼ 25 µl). Das Zell-Lysat wurde anschließend in eine Messplatte überführt und entsprechend den Herstellerangaben (cyclic AMP kit Cisbio International # 62AMPPEC) gemessen.

[2] = biological target: T1, EP2-Subtyp des humanen PGE2-Rezeptors; experiment: cellular cAMP agonism test (without PGE2); assay type: cell-based

T1 sequence (P43116 whole entry): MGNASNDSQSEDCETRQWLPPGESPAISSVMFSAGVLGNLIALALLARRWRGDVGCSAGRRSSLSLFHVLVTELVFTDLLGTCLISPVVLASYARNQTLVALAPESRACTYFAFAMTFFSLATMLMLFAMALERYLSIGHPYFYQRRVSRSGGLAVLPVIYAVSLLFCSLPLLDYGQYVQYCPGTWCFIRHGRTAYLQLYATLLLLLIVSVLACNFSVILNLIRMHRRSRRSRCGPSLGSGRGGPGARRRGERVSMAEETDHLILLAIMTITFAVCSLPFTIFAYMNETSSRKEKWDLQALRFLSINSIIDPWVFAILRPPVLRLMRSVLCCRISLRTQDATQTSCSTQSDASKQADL

| SMILES | pIC50 [1] | other results |
| --- | --- | --- |
| CC(C)Oc1ccc2c(=O)c3cc(C(=O)O)ccc3oc2c1 [AH 6809, reference compound] | – | Unterdrückung der Kumulus Expansion (Kumulus-Eizell Komplexe; 100 - 200 µM): ca. 30% |
| Cc1[nH]c2c(F)c(F)ccc2c1CCNC(=O)c1cc2cc(Cl)ccc2[nH]1 [Beispiel 5, 5-Chlor-1H-indol-2-carbonsäure [2-(6,7-difluor-2-methyl-1H-indol-3-yl)-ethyl]-amid] | 7.15 | – |
| Cc1[nH]c2c(F)c(Cl)ccc2c1CCNC(=O)c1cc2cc(F)ccc2[nH]1 [Beispiel 6, 5-Fluor-1H-indol-2-carbonsäure [2-(6-chlor-7-fluor-2-methyl-1H-indol-3-yl)-ethyl]-amid] | 6.70 | – |
| Cc1[nH]c2c(F)cc(Br)cc2c1CCNC(=O)c1cc2cc(F)ccc2[nH]1 [Beispiel 10, 5-Fluor-1H-indol-2-carbonsäure [2-(5-brom-7-fluor-2-methyl-1H-indol-3-yl)-ethyl]-amid] | 7.09 | Wirkung im zellulären Agonismustest [2]: keine Inhibition; Unterdrückung der Kumulus Expansion (Kumulus-Eizell Komplexe; 5 µM): ca. 75% |

The next lines start with results.

| pIC50 [1] | SMILES | other results |
| --- | --- | --- |
| 6.15 | COc1ccc(C(=O)NCCc2c(C)[nH]c3c(F)cc(F)cc23)cc1OC [Beispiel 3, N-[2-(5,7-Difluor-2-methyl-1H-indol-3-yl)-ethyl]-3,4-dimethoxy-benzamid] | – |
| 5.74 | COc1ccc(C(=O)NCCc2c(C)[nH]c3c(F)cc(Br)c(C)c23)cc1OC [Beispiel 8, N-[2-(5-Brom-7-fluor-2,4-dimethyl-1H-indol-3-yl)-ethyl]-3,4-dimethoxy-benzamid] | – |

— EP2149552A1, “5,6 substituted benzamide derivatives as modulators of EP2 receptors” (Bayer Schering Pharma Aktiengesellschaft, priority 2008, dated 2010)
